In patent US7033509B2 (priority 2000, dated 2006):
Several values for one entry are separate records, joined by “and”; a condition that tells them apart may be missing. Equal values may be shown once. Read-outs that look alike come from different tables or passages of the source.

Columns and labels:
[1] = tested on: bacteria on the surface of rockmelon; assay type: cell-based
[2] = tested on: fungi on the surface of apple; assay type: cell-based
[3] = tested on: bacteria on the surface of potato; experiment: Potato (L) laboratory dipping, bacteria; assay type: cell-based; details: concentrations of 3, 10 & 30 ppm iodine used
[4] = tested on: fungi on the surface of rockmelon; assay type: cell-based
Escherichia coli = details: compared with chlorine, especially at the higher temperature and pH values; cited from earlier work
[5] = tested on: fungi on the surface of potato; experiment: Potato (L) laboratory dipping, fungi; assay type: cell-based; details: concentrations of 3, 10 & 30 ppm iodine used
[6] = tested on: fungi on the surface of lettuce; experiment: Lettuce (L) laboratory dipping, fungi; assay type: cell-based; details: 10, 20, 30 ppm iodine
[7] = tested on: fungi on the surface of orange; experiment: Orange (L) laboratory dipping, fungi; assay type: cell-based; details: concentrations of 3, 10 & 30 ppm iodine used
[8] = tested on: naturally occurring surface organisms on fruits and vegetables; experiment: Dipping time effect on efficacy (potatoes, oranges); assay type: cell-based, bacteria and fungi; details: iodine dips, one to four minutes
[9] = tested on: fungi on the surface of strawberry; assay type: cell-based
[10] = tested on: bacteria on the surface of tomato; experiment: Tomato (L) laboratory dipping, bacteria; assay type: cell-based; details: 10, 20, 30 ppm iodine
[11] = tested on: fungi on the surface of lettuce; assay type: cell-based
[12] = tested on: bacteria on the surface of lettuce; experiment: Lettuce (L) laboratory dipping, bacteria; assay type: cell-based; details: 10, 20, 30 ppm iodine
[13] = tested on: bacteria on the surface of strawberry; assay type: cell-based
[14] = tested on: fungi on the surface of potato; assay type: cell-based
[15] = tested on: fungi on the surface of avocado; assay type: cell-based
[16] = tested on: bacteria on the surface of orange; experiment: Orange (L) laboratory dipping, bacteria; assay type: cell-based; details: concentrations of 3, 10 & 30 ppm iodine used
[17] = tested on: fungi on the surface of nectarine; experiment: Nectarine (L) laboratory dipping, fungi; assay type: cell-based; details: concentrations of 3, 10 & 30 ppm iodine used
[18] = tested on: bacteria on the surface of avocado; assay type: cell-based
[19] = tested on: bacteria on the surface of apple; assay type: cell-based
[20] = tested on: bacteria on the surface of peach; assay type: cell-based
[21] = tested on: bacteria on the surface of lettuce; assay type: cell-based
[22] = tested on: bacteria and fungi found on fresh fruit and vegetables; experiment: Summary of efficacy results: comparison bacteria/fungi and iodine/chlorine; assay type: cell-based
[23] = tested on: fungi on the surface of peach; assay type: cell-based
[24] = tested on: bacteria on the surface of nectarine; experiment: Nectarine (L) laboratory dipping, bacteria; assay type: cell-based; details: concentrations of 3, 10 & 30 ppm iodine used
[25] = tested on: bacteria on the surface of potato; assay type: cell-based
[26] = tested on: fungi on the surface of tomato; experiment: Tomato (L) laboratory dipping, fungi; assay type: cell-based; details: 10, 20, 30 ppm iodine
bacteria on bean sprouts = experiment: Bean sprouts (ISU), bacteria; assay type: cell-based; details: 10, 20, 30 ppm iodine
fungi on bean sprouts = experiment: Bean sprouts (ISU), fungi; assay type: cell-based; details: 10, 20, 30 ppm iodine

With `II` the “Bacterial population per cm^2 Actual count” value [1] was 19,514 per cm^2 and 14,456 per cm^2 and 10,028 per cm^2, the “Bacterial population per cm^2 Log10 count” value [1] was 4.26 log10 units and 4.15 log10 units and 3.98 log10 units and the “Bacterial population per cm^2 Log10 reduction” value [1] was 0.83 b log10 units and 0.93 bc log10 units and 1.10 cd log10 units. The “Bacteria—dose for ~1.5 log10 reduction” value [1] was over 30 ppm, the “Fungi—dose for ~1.5 log10 reduction” value [2] was 10 ppm and the “Bacteria—dose for ~1.5 log10 reduction” value [3] was over 30 ppm. For the same molecule, the “Fungi—dose for ~1.5 log10 reduction” value [4] was 20 ppm, the “efficiency for the control of Escherichia coli in dirty water” value (Escherichia coli) was “greater than that of chlorine” and the “Fungi—dose for ~1.5 log10 reduction” value [5] was over 30 ppm. The “Fungi—dose for ~1.5 log10 reduction” value [6] was over 30 ppm, the “Fungi—dose for ~1.5 log10 reduction” value [7] was 30 ppm and the “effect of dip time on effectiveness” value [8] was “equivalent in effectiveness to doubling the dip concentration”. For the same molecule, the “Fungi—dose for ~1.5 log10 reduction” value [9] was 30 ppm, the “Bacteria—dose for ~1.5 log10 reduction” value [10] was 20 ppm and the “Fungal population per cm^2 Log10 count” value [11] was −0.12 log10 units and −0.35 log10 units. The “Fungi—dose for ~1.5 log10 reduction” value [11] was 10 ppm, the “Bacteria—dose for ~1.5 log10 reduction” value [12] was 30 ppm and the “Bacteria—dose for ~1.5 log10 reduction” value [13] was over 30 ppm. The “Fungal population per cm^2 Actual count” value [14] was 2 per cm^2 and 3 per cm^2, the “Fungi—dose for ~1.5 log10 reduction” value [14] was 10 ppm and the “Fungi—dose for ~1.5 log10 reduction” value [15] was 20 ppm. For the same molecule, the “Bacteria—dose for ~1.5 log10 reduction” value [16] was 30 ppm, the “Fungi—dose for ~1.5 log10 reduction” value [17] was 10 ppm and the “Bacteria—dose for ~1.5 log10 reduction” value [18] was 10 ppm. For the same molecule, the “Bacteria—dose for ~1.5 log10 reduction” value [19] was 10 ppm, the “Bacteria—dose for ~1.5 log10 reduction” value [20] was 10 ppm and the “Bacteria—dose for ~1.5 log10 reduction” value [21] was 20 ppm. The “Better Control of Bacteria/Fungi” value ([22]; Apples (ISU)) was “Fungi”, the “Better control by iodine/chlorine” value ([22]; Apples (ISU)) was “Iodine” and the “Better Control of Bacteria/Fungi” value ([22]; Avocado (ISU)) was “Bacteria”. For the same molecule, the “Better control by iodine/chlorine” value ([22]; Avocado (ISU)) was “Iodine”, the “Better control by iodine/chlorine” value ([22]; Bean sprouts (ISU)) was “Iodine” and the “Better Control of Bacteria/Fungi” value ([22]; Lettuce (ISU)) was “Fungi”. The “Better control by iodine/chlorine” value ([22]; Lettuce (ISU)) was “Iodine”, the “Better Control of Bacteria/Fungi” value ([22]; Lettuce (L)) was “Bacteria” and the “Better control by iodine/chlorine” value ([22]; Lettuce (L)) was “Chlorine”. The “Better Control of Bacteria/Fungi” value ([22]; Nectarine (L)) was “Bacteria”, the “Better control by iodine/chlorine” value ([22]; Nectarine (L)) was “Iodine” and the “Better Control of Bacteria/Fungi” value ([22]; Orange (L)) was “Bacteria”. The “Better control by iodine/chlorine” value ([22]; Orange (L)) was “Chlorine”, the “Better Control of Bacteria/Fungi” value ([22]; Peach (L)) was “Bacteria” and the “Better control by iodine/chlorine” value ([22]; Peach (L)) was “Iodine”. The “Better Control of Bacteria/Fungi” value ([22]; Potato (ISU)) was “Fungi”, the “Better control by iodine/chlorine” value ([22]; Potato (ISU)) was “Iodine” and the “Better Control of Bacteria/Fungi” value ([22]; Potato (L)) was “Fungi”. For the same molecule, the “Better control by iodine/chlorine” value ([22]; Potato (L)) was “Iodine”, the “Better Control of Bacteria/Fungi” value ([22]; Rockmelon (ISU)) was “Fungi” and the “Better control by iodine/chlorine” value ([22]; Rockmelon (ISU)) was “Same effectiveness”. The “Better Control of Bacteria/Fungi” value ([22]; Strawberry (ISU)) was “Fungi”, the “Better control by iodine/chlorine” value ([22]; Strawberry (ISU)) was “Iodine” and the “Better Control of Bacteria/Fungi” value ([22]; Tomato (L)) was “Fungi”. The “Better control by iodine/chlorine” value ([22]; Tomato (L)) was “Iodine”, the “effectiveness compared with an equivalent concentration of chlorine” value ([22]; over the range of products and concentrations used) was “considerably more effective” and the “Fungi—dose for ~1.5 log10 reduction” value [23] was 30 ppm. For the same molecule, the “Bacteria—dose for ~1.5 log10 reduction” value [24] was 3.3 ppm, the “Bacterial population per cm^2 Actual count” value [25] was 370 per cm^2 and 260 per cm^2 and 249 per cm^2 and the “Bacterial population per cm^2 Log10 count” value [25] was 2.54 log10 units and 2.34 log10 units and 2.38 log10 units. The “Bacterial population per cm^2 Log10 reduction” value [25] was 0.39 ab log10 units and 0.58 b log10 units and 0.54 b log10 units, the “Bacteria—dose for ~1.5 log10 reduction” value [25] was over 30 ppm and the “Fungi—dose for ~1.5 log10 reduction” value [26] was 20 ppm. For the same molecule, the “Bacteria—dose for ~1.5 log10 reduction” value (bacteria on bean sprouts) was 30 ppm and the “Fungi—dose for ~1.5 log10 reduction” value (fungi on bean sprouts) was 30 ppm.
